Test results taken from patent US8293729B2 (Boehringer Ingelheim International GmbH, priority 2009, dated 2012).

Biological target: T1, human GPR119 receptor (Homo sapiens, UniProt Q8TDV5, S329A/T327A)
T1 construct: N-terminal leader […]; expressed in transfected cells
T1 sequence (Q8TDV5 with tags, fused parts or gaps T327A/S329A): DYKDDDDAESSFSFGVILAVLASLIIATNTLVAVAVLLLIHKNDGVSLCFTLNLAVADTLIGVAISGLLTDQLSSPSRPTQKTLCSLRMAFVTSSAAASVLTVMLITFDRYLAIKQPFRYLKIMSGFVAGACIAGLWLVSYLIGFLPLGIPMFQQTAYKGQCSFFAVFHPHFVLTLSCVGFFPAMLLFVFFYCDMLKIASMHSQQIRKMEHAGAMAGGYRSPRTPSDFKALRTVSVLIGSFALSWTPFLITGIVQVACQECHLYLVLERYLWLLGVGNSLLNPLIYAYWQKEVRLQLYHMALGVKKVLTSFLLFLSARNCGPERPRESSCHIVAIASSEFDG
Assay: cAMP assay (LANCE cAMP-384) in HEK293 cells stably expressing mutant human GPR119 receptor
Format: cell-based
Conditions: HEK293, 20 min; 10 μM; the 30th table; read-out: stimulation in % at 10 μM
Outline: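 HEK293 cells stably expressing human GPR119 (T327A/S329A, modified N-terminus), 1000 cells/well, exposed to compound for 20 min at 37° C. cAMP quantified by LANCE TR-FRET against a standard curve; EC50 from 12 points, 30 μM to 100 pM, or % stimulation at 10 μM.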

| Compound | activation at 10 µM [%] |
| --- | --- |
| Cc1nnn(Cc2cnc(N3CCC(=NOC4CCN(C(=O)OC(C)C)CC4)CC3)c(F)c2)n1 [Example 54-5] | 75 |

Same assay, conditions: HEK293, 20 min; at 10 μM; printed in EC50 column of the 36th table; read-out: stimulation in % at 10 μM

| Compound | activation at 10 µM [%] |
| --- | --- |
| COc1ccccc1CN1CCC(ON=C2CCN(c3ccc(S(C)(=O)=O)cc3F)CC2)CC1 [Example 66-18] | 66 |

Same assay, conditions: cAMP accumulation, HEK293 cells stably expressing mutant human GPR119; read-out: EC50

| Compound | EC50 [nM] |
| --- | --- |
| Cc1ncccc1N1CCC(=NOC2CCN(C(=O)OC(C)C)CC2)CC1 [Example 4-1, Isopropyl 4-(2′-Methyl-2,3,5,6-tetrahydro-[1,3′]bipyridinyl-4-ylideneaminooxy)piperidine-1-carboxylate] | 4800 |
| CC(C)OC(=O)N1CCC(ON=C2CCN(c3cc(F)c(CN4CCCC4)cc3F)CC2)CC1 [Example 5-1, 4-[1-(2,5-Difluoro-4-pyrrolidin-1-ylmethyl-phenyl)-piperidin-4-ylideneaminooxy]-piperidine-1-carboxylic acid isopropyl ester] | 7830 |
| CC(C)OC(=O)N1CCC(ON=C2CCN(c3cc(F)c(CNCc4nccs4)cc3F)CC2)CC1 [Example 5-11] | 332 |
| Cc1nnn(Cc2cc(F)c(N3CCC(=NOC4CCN(C(=O)OC(C)C)CC4)CC3)cc2F)n1 [Example 14-16] | 256 |
| CC(C)OC(=O)N1CCC(ON=C2CCN(c3ccc(C=O)cc3)CC2)CC1 [Example 2-28] | > 10000 |
| CC(C)OC(=O)N1CCC(ON=C2CCN(c3cc(F)c([N+](=O)[O-])cc3F)CC2)CC1 [Example 2-62] | 304 |
| CC(C)OC(=O)N1CCC(ON=C2CCN(c3cc(F)c(Cn4cnc5cccnc54)cc3F)CC2)CC1 [Example 14-6] | 647 |
| CCOC(=O)CNC(=O)NCc1cc(F)c(N2CCC(=NOC3CCN(C(=O)OC(C)C)CC3)CC2)cc1F [Example 16-9] | 401 |
| CC(C)OC(=O)N1CCC(ON=C2CCN(c3cc(F)c(C(=O)NCCCN)cc3F)CC2)CC1 [Example 31-3] | 542 |
| CC(C)OC(=O)N1CCC(ON=C2CCN(c3cc(F)c(C4SCCC[S+]4[O-])cc3F)CC2)CC1 (mixture of isomers) [Example 21-1, 4-{1-[2,5-Difluoro-4-(1-oxo-1 lambda*4*-[1,3]dithian-2-yl)-phenyl]-piperidin-4-ylideneaminooxy}-piperidine-1-carboxylic acid isopropyl ester] | 143 |
| CC(C)OC(=O)N1CCC(ON=C2CCN(c3nccc(Cl)n3)CC2)CC1 [Example 2-47] | 2010 |
| CC(C)OC(=O)N1CCC(ON=C2CCN(c3nc(Cl)ncc3Cl)CC2)CC1 [Example 2-49] | 170 |
| Cc1ccn(Cc2cc(F)c(N3CCC(=NOC4CCN(C(=O)OC(C)C)CC4)CC3)cc2F)n1 [Example 14-9] | 257 |
| CC(C)OC(=O)N1CCC(ON=C2CCN(c3cc(F)c(CN(C)CCCC(=O)O)cc3F)CC2)CC1 [Example 5-10] | > 10000 |
| CC(C)OC(=O)N1CCC(ON=C2CCN(c3cc(F)c(-c4ccc[nH]4)cc3F)CC2)CC1 [Example 27-7] | 436 |
| CC(C)OC(=O)N1CCC(ON=C2CCN(c3cc(F)c(C(=O)NCCC(=O)O)cc3F)CC2)CC1 [Example 30-2] | 1150 |
| CC(C)OC(=O)N1CCC(ON=C2CCN(c3ccncc3)CC2)CC1 [Example 2-9] | > 10000 |
| CC(C)OC(=O)N1CCC(ON=C2CCN(c3cc(F)c(CNS(=O)(=O)C(C)C)cc3F)CC2)CC1 [Example 16-5] | 142 |
| CC(C)OC(=O)N1CCC(ON=C2CCN(c3cc(F)ccc3F)CC2)CC1 [Example 32-2] | 2860 |
| CC(=O)c1cc(F)c(N2CCC(=NOC3CCN(C(=O)OC(C)C)CC3)CC2)cc1F [Example 2-23] | 375 |

Same assay, conditions: the 15th table; read-out: EC50

| Compound | EC50 [nM] |
| --- | --- |
| CC(C)OC(=O)N1CCC(ON=C2CCN(c3cc(F)c(C(=O)N4CCCCC4CN)cc3F)CC2)CC1 (stereo not drawn) [Example 29-57] | 185 |
| CC(C)OC(=O)N1CCC(ON=C2CCN(c3cc(F)c(C(=O)NCCCO)cc3F)CC2)CC1 [Example 29-9] | 94 |
| CC(C)OC(=O)N1CCC(ON=C2CCN(c3cc(F)c(C(=O)N4CCC(CN(C)C)CC4)cc3F)CC2)CC1 [Example 29-47] | 264 |

Same assay, conditions: the 19th table; unit inferred; read-out: EC 50

| Compound | EC50 [nM] |
| --- | --- |
| CCc1cnc(N2CCC(ON=C3CCN(c4cc(F)c(C(=O)N5CCC(CNC)CC5)cc4F)CC3)CC2)nc1 [Example 29-130] | 206 |
| CCc1cnc(N2CCC(ON=C3CCN(c4cc(F)c(C(=O)N5CCC[C@@H]5CN)cc4F)CC3)CC2)nc1 [Example 29-132] | 114 |
| CCc1cnc(N2CCC(ON=C3CCN(c4cc(F)c(C(=O)NCC5CCCN5)cc4F)CC3)CC2)nc1 (stereo not drawn) [Example 29-122] | 176 |
| CCc1cnc(N2CCC(ON=C3CCN(c4cc(F)c(C(=O)NCCC5CCNCC5)cc4F)CC3)CC2)nc1 [Example 29-112] | 38 |
| CCc1cnc(N2CCC(ON=C3CCN(c4cc(F)c(C(=O)NCC5CCCN5)cc4F)CC3)CC2)nc1 (stereo not drawn) [Example 29-121] | 139 |
| CCc1cnc(N2CCC(ON=C3CCN(c4cc(F)c(C(=O)N5CCC[C@@H](N)C5)cc4F)CC3)CC2)nc1 [Example 29-88] | 221 |

Same assay, conditions: the 26th table; read-out: EC50

| Compound | EC50 [nM] |
| --- | --- |
| CC(C)OC(=O)N1CCC(ON=C2CCN(c3cc(F)c(S(C)(=O)=O)cc3F)CC2)CC1 [Example 46-2] | 28 |

Same assay, conditions: the 32nd table; read-out: EC50

| Compound | EC50 [nM] |
| --- | --- |
| CS(=O)(=O)c1ccc(N2CCC(=NOC3CCN(c4nccc(C(F)(F)F)n4)CC3)CC2)c(F)c1 [Example 63-11] | > 10000 |
| CS(=O)(=O)c1ccc(N2CCC(=NOC3CCN(c4nccs4)CC3)CC2)c(F)c1 [Example 63-7] | 447 |
| CCOC(=O)c1ccc(N2CCC(ON=C3CCN(c4ccc(S(C)(=O)=O)cc4F)CC3)CC2)nc1 [Example 63-26] | > 10000 |
| CS(=O)(=O)c1ccc(N2CCC(=NOC3CCN(c4cc(C(F)(F)F)ccn4)CC3)CC2)c(F)c1 [Example 63-10] | > 10000 |

Same assay, conditions: the 33rd table; read-out: EC50

| Compound | EC50 [nM] |
| --- | --- |
| CC(OC(=O)N1CCC(ON=C2CCN(c3ccc(S(C)(=O)=O)cc3F)CC2)CC1)C1CC1 (stereo not drawn) [Example 64-5] | 90 |
| CC(CN(C)C)OC(=O)N1CCC(ON=C2CCN(c3ccc(S(C)(=O)=O)cc3F)CC2)CC1 (stereo not drawn) [Example 64-14] | > 10000 |

Same assay, conditions: the 34th table, compounds 65-1 to 65-24; read-out: EC50

| Compound | EC50 [nM] |
| --- | --- |
| CS(=O)(=O)c1ccc(N2CCC(=NOC3CCN(S(=O)(=O)c4ccccc4)CC3)CC2)c(F)c1 [Example 65-18] | 1100 |

Same assay, conditions: the 36th table, compounds 66-1 to 66-51; read-out: EC50

| Compound | EC50 [nM] |
| --- | --- |
| Cc1nc[nH]c1CN1CCC(ON=C2CCN(c3ccc(S(C)(=O)=O)cc3F)CC2)CC1 [Example 66-9] | > 10000 |
| CS(=O)(=O)c1ccc(N2CCC(=NOC3CCN(Cc4ccccc4F)CC3)CC2)c(F)c1 [Example 66-16] | 560 |
| CC(C)(C)CN1CCC(ON=C2CCN(c3ccc(S(C)(=O)=O)cc3F)CC2)CC1 [Example 66-22] | 1360 |
| Cc1ccc(CN2CCC(ON=C3CCN(c4ccc(S(C)(=O)=O)cc4F)CC3)CC2)cc1 [Example 66-26] | 288 |
| CS(=O)(=O)c1ccc(N2CCC(=NOC3CCN(Cc4ccc(Br)cc4F)CC3)CC2)c(F)c1 [Example 66-44] | 753 |
| Cc1c(CN2CCC(ON=C3CCN(c4ccc(S(C)(=O)=O)cc4F)CC3)CC2)cnn1C [Example 66-7] | > 10000 |

Same assay, conditions: the 37th table, compounds 66-52 to 66-64; read-out: EC50

| Compound | EC50 [nM] |
| --- | --- |
| CCCc1ccc(CN2CCC(ON=C3CCN(c4cc(F)c(S(C)(=O)=O)cc4F)CC3)CC2)c(F)c1 [Example 66-59] | 53 |

Same assay, conditions: the 38th table, compounds 66-65 to 66-72; read-out: EC50

| Compound | EC50 [nM] |
| --- | --- |
| CNC(=O)c1cc(F)c(N2CCC(=NOC3CCN(Cc4ccc(Cl)cc4)CC3)CC2)cc1F [Example 66-68] | 365 |

Same assay, conditions: the 43rd table, compounds 75-1 to 75-38; read-out: EC50

| Compound | EC50 [nM] |
| --- | --- |
| CNC1CCN(C(=O)Cc2cc(F)c(N3CCC(=NOC4CCN(C(=O)OC(C)C)CC4)CC3)cc2F)CC1 [Example 75-21] | 126 |
| CC(C)OC(=O)N1CCC(ON=C2CCN(c3cc(F)c(CC(=O)N4CCCCC4CN4CCCC4)cc3F)CC2)CC1 (stereo not drawn) [Example 75-30] | 333 |
| CC(C)OC(=O)N1CCC(ON=C2CCN(c3cc(F)c(CC(=O)N4CCC(CN5CCCCC5)C4)cc3F)CC2)CC1 (stereo not drawn) [Example 75-35] | 171 |
| CC(C)OC(=O)N1CCC(ON=C2CCN(c3cc(F)c(CC(=O)NCCN(C)C)cc3F)CC2)CC1 [Example 75-1, 4-(1-{4-[(2-dimethylamino-ethylcarbamoyl)-methyl]-2,5-difluoro-phenyl}-piperidin-4-ylideneaminooxy)-piperidine-1-carboxylic acid isopropyl ester] | 254 |
| CC(C)OC(=O)N1CCC(ON=C2CCN(c3cc(F)c(CC(=O)N4CC[C@@H](N)C4)cc3F)CC2)CC1 [Example 75-19] | 78 |
| CC(C)OC(=O)N1CCC(ON=C2CCN(c3cc(F)c(CC(=O)N4CC[C@H](N)C4)cc3F)CC2)CC1 [Example 75-20] | 45 |

Same assay, conditions: the 44th table, compounds 77-1 to 77-14; read-out: EC50

| Compound | EC50 [nM] |
| --- | --- |
| CCc1cnc(N2CCC(ON=C3CCN(c4cc(F)c(CC(=O)N5CC[C@@H](N)C5)cc4F)CC3)CC2)nc1 [Example 77-11] | 47 |
| CCc1cnc(N2CCC(ON=C3CCN(c4cc(F)c(CC(=O)N5CCNCC5)cc4F)CC3)CC2)nc1 [Example 77-13] | 39 |
| CCc1cnc(N2CCC(ON=C3CCN(c4cc(F)c(CC(=O)N5CCC[C@@H](N)C5)cc4F)CC3)CC2)nc1 [Example 77-8] | 30 |
| CCc1cnc(N2CCC(ON=C3CCN(c4cc(F)c(CC(N)=O)cc4F)CC3)CC2)nc1 [Example 77-4] | 32 |
